Measurements published in the Deep4Chem optical property database.

Experiment: solvent given as SMILES

**Q.** For `N#Cc1nc2c3ccc(-n4c5ccccc5c5ccccc54)cc3c3cc(-n4c5ccccc5c5ccccc54)ccc3c2nc1C#N`, which emission maximum (in C1COCCO1) is on record?
**A.** 568.06 nm

**Q.** And the emission maximum (in CCCCCC)?
**A.** 469.61 nm

**Q.** And the emission maximum (in Cc1ccccc1)?
**A.** 531 nm

**Q.** And the emission maximum (in ClC(Cl)Cl)?
**A.** 612.69 nm

**Q.** What about the emission maximum (in O=P(c1ccccc1)(c1ccccc1)c1cccc(-c2cc(-n3c4ccccc4c4ccccc43)cc(-n3c4ccccc4c4ccccc43)c2)n1) of the same compound?
**A.** 560 nm

**Q.** With `c1ccc(-c2nc(-c3ccccn3)sc2N(c2ccccc2)c2ccccc2)cc1` as the compound, how does the emission maximum (in ClC(Cl)Cl) read?
**A.** 482 nm

**Q.** Which emission maximum (in ClC(Cl)Cl) does the source give for `CCc1ccc(-n2c3ccccc3c3cc4c(cc32)c2ccccc2n4-c2ccc(CC)s2)s1` here?
**A.** 405 nm

**Q.** For `CCCCCCc1cc2c3c(c1)c(=C1c4ccccc4Sc4ccccc41)c1cc(CCCCCC)cc4c1N3c1c(cc(CCCCCC)cc1c4=C1c3ccccc3Sc3ccccc31)c2=C1c2ccccc2Sc2ccccc21`, which emission maximum (in ClCCl) is on record?
**A.** 498 nm

**Q.** With `COC(=O)c1c(C(=O)OC)c2ccc(-c3ccccc3)nn2c1C` as the compound, how does the emission maximum (in CCCCCC) read?
**A.** 471 nm

**Q.** For `CCN(CC)c1ccc(-c2ccc(-c3nc(N4CCOCC4)c4ccccc4n3)s2)cc1`, which emission maximum (in CC#N) is on record?
**A.** 544 nm

**Q.** And the emission maximum (in Cc1ccccc1)?
**A.** 476 nm

**Q.** Which emission maximum (in CN(C)C=O) does the source give for `Cc1cc(-c2ccc(-c3nc4ccccc4[nH]3)cc2)c(C)cc1-c1ccc(-c2nc3ccccc3[nH]2)cc1` here?
**A.** 401 nm

**Q.** With `CC(C)(C)c1ccc(-c2c(-c3cccc(-n4c5ccccc5c5ccccc54)c3)c(C#N)c(-c3cccc(-n4c5ccccc5c5ccccc54)c3)c(-c3ccc(C(C)(C)C)cc3)c2-c2ccc(C(C)(C)C)cc2)cc1` as the compound, how does the emission maximum (in C1CCOC1) read?
**A.** 412 nm

**Q.** Which emission maximum (in ClCCl) does the source give for `CC(C)(C)NC(=O)c1ccc(Br)c2ccc3c4ccc(F)cc4c4cc(F)ccc4c3c12` here?
**A.** 394 nm

**Q.** For `CC(C)(C)c1ccc2c(c1)B1c3cc(C(C)(C)C)ccc3Oc3cc(N4c5ccccc5C(C)(C)c5ccccc54)cc(c31)O2`, which emission maximum (in Cc1ccccc1) is on record?
**A.** 458 nm

**Q.** What does the source list for `CCC[n+]1ccc(/C=C/c2ccc(N(C)C)cc2)cc1`?
**A.** emission maximum (in C1COCCO1): 557 nm; emission maximum (in CC(C)O): 571 nm; emission maximum (in CCCCO): 576 nm; emission maximum (in CCCO): 576 nm; emission maximum (in CCO): 576 nm; emission maximum (in CO): 579 nm; emission maximum (in CS(C)=O): 589 nm; emission maximum (in ClC(Cl)Cl): 560 nm; emission maximum (in ClCCl): 560 nm; emission maximum (in c1ccccc1): 552 nm

**Q.** Which emission maximum (in ClCCl) does the source give for `CC(C)[Si](C#Cc1ccc(C#Cc2c3cc4ccccc4cc3c(C#C[Si](C(C)C)(C(C)C)C(C)C)c3cc4ccccc4cc23)cc1)(C(C)C)C(C)C` here?
**A.** 668 nm

**Q.** Which emission maximum (in C1CCOC1) does the source give for `O=Cc1ccc(C=C(c2ccccc2)c2ccccc2)cc1` here?
**A.** 383 nm

**Q.** With `COc1ccc(C(=Cc2ccc(C#N)cc2)c2ccc(OC)cc2)cc1` as the compound, how does the emission maximum (in C1CCOC1) read?
**A.** 395 nm

**Q.** Which emission maximum (in CO) does the source give for `CCOC(=O)CCCCCn1c2ccccc2c(=O)c2cc3c(cc21)c(=O)c1ccccc1n3CC` here?
**A.** 550 nm

**Q.** Which emission maximum (in ClCCl) does the source give for `COC(=O)C1=C(C(=O)OC)C2(c3ccccc3-c3c(Br)cc(Br)cc32)C2(/C=C/c3ccccc3)c3cc(OC)c(OC)cc3CCN12` (stereo unspecified) here?
**A.** 491 nm

**Q.** For `Cc1c2ccc3c(C)[n+](C)ccc3c2cc[n+]1C`, which emission maximum (in CC#N) is on record?
**A.** 408 nm

**Q.** With `O=C(O)CCCc1cc2ccc3cccc4ccc(c1)c2c34` as the compound, how does the emission maximum (in CO) read?
**A.** 374 nm

**Q.** For `CN(C)CCN(Cc1c2ccccc2cc2ccccc12)c1ccc([N+](=O)[O-])cc1`, which emission maximum (in C1CCCCC1) is on record?
**A.** 411 nm

**Q.** What about the emission maximum (in C1CCOC1) of the same compound?
**A.** 414 nm

**Q.** What about the emission maximum (in CC#N) of the same compound?
**A.** 389 nm

**Q.** And the emission maximum (in CC(C)=O)?
**A.** 387 nm

**Q.** And the emission maximum (in CCO)?
**A.** 410 nm

**Q.** And the emission maximum (in CN(C)C=O)?
**A.** 389 nm

**Q.** What about the emission maximum (in CO) of the same compound?
**A.** 389 nm

**Q.** And the emission maximum (in ClC(Cl)Cl)?
**A.** 415 nm

**Q.** Which emission maximum (in ClCCl) does the source give for `COC(=O)c1[nH]c(-c2ccc(Br)cc2)c2nnc3ccc(OC)cc3c12` here?
**A.** 475 nm

**Q.** With `COc1cccc2cc(C)c3c4ccccc4n(C)c3c12` as the compound, how does the emission maximum (in ClCCl) read?
**A.** 380 nm

**Q.** For `COc1cc(OC)cc(C2=C(c3cc(OC)c(OC)c(OC)c3)C3=Nc4c(-c5cc(OC)c(OC)c(OC)c5)c(-c5cc(OC)cc(OC)c5)c(-c5ccc(C(C)(C)C)cc5)n4[B-](F)(F)[N+]3=C2c2ccc(C(C)(C)C)cc2)c1`, which emission maximum (in Cc1ccccc1) is on record?
**A.** 721 nm

**Q.** Which emission maximum (in C1CCCCC1) does the source give for `Cc1cccc(NC(=O)c2ccc(N(C)C)cc2)c1` here?
**A.** 452 nm

**Q.** And the emission maximum (in C1CCOC1)?
**A.** 518 nm

**Q.** And the emission maximum (in CC#N)?
**A.** 502 nm

**Q.** What about the emission maximum (in CCOCC) of the same compound?
**A.** 498 nm

**Q.** Which emission maximum (in ClCCl) does the source give for `CCN(CC)c1ccc2cc(-c3nc4c5ccccc5c5ccccc5c4n3-c3ccc(C(C)(C)C)cc3)c(=O)oc2c1` here?
**A.** 492 nm

**Q.** For `FC(F)(F)C(F)(F)C(F)(F)c1nc2c(-c3ccsc3)cc3c4cc(-c5ccsc5)c5nc(C(F)(F)C(F)(F)C(F)(F)F)nc6c(-c7ccsc7)cc(c7cc(-c8ccsc8)c(n1)c2c37)c4c56`, which emission maximum (in C1CCOC1) is on record?
**A.** 574 nm

**Q.** For `C#Cc1ccc(C#Cc2cnc(C#Cc3ccccc3)nc2)cc1`, which emission maximum (in C1CCCCC1) is on record?
**A.** 415 nm

**Q.** With `COc1ccc(-c2cc(-c3ccccc3)nn2C)cc1` as the compound, how does the emission maximum (in ClCCl) read?
**A.** 333 nm

**Q.** With `O=c1oc2ccccc2nc1-c1ccc(Cl)cc1` as the compound, how does the emission maximum (in c1ccccc1) read?
**A.** 440 nm

**Q.** For `CCOC(=O)C1=CNC=C(C(=O)OCC)C1c1ccccc1`, which emission maximum (in C1CCOC1) is on record?
**A.** 412 nm

**Q.** What about the emission maximum (in CO) of the same compound?
**A.** 423 nm

**Q.** Which emission maximum (in C1CCCCC1) does the source give for `COCCC1(CCOC)c2cc(-c3ccc(OC)cc3)ccc2-c2ccc(-c3ccc(OC)cc3)cc21` here?
**A.** 371 nm

**Q.** For `C(#Cc1ccccc1)C(C#Cc1ccccc1)=Cc1ccc2cc(C=C(C#Cc3ccccc3)C#Cc3ccccc3)ccc2c1`, which emission maximum (in ClC(Cl)Cl) is on record?
**A.** 473 nm

**Q.** With `CCCCCCCN1C(=CC2=C([O-])C(=CC3=[N+](CCCCCCC)c4ccccc4C3(C)C)C2=C(C#N)C#N)Sc2ccccc21` as the compound, how does the emission maximum (in C1COCCO1) read?
**A.** 709 nm

**Q.** And the emission maximum (in CCO)?
**A.** 699 nm

**Q.** What about the emission maximum (in CN(C)C=O) of the same compound?
**A.** 702 nm

**Q.** What about the emission maximum (in ClC(Cl)Cl) of the same compound?
**A.** 709 nm

**Q.** Which emission maximum (in ClCCl) does the source give for `CCCCC(CC)COc1ccc2nc(-c3ccc(-c4cccs4)s3)sc2c1` (stereo unspecified) here?
**A.** 438 nm
